The values that follow come from patent publication EP3628672A1 (priority 2018, dated 2020).

One may read the Ki as the dissociation constant of the complex between target and ligand, obtained from inhibition or displacement.

The assay deals with T1, purified LasB protein from P. aeruginosa (Pseudomonas aeruginosa, UniProt P14756).
T1 construct: purchased Merck or Charles River Laboratories
In words: Fluorometric assay to determine Ki (Abz-Ala-Gly-Leu-Ala-p-Nitro-Benzyl-Amide substrate). In kind it is biochemical. The procedure:
Experiments were therefore conducted (1) to measure the potency of inhibition of compounds of the invention against purified Pseudomonas aeruginosa LasB enzyme and also experiments were conducted (2) to measure the ability of compounds of the invention to inhibit LasB-catalysed elastin degradation. The first assay uses a commercial fluorescent synthetic peptide and purified LasB enzyme. The LasB hydrolysis kinetics are measured allowing the determination of the IC50 and Ki of the inhibitors; the second is a more physiological assay using dialysed Pseudomonas aeruginosa supernatant as source of enzyme, plus its natural substrate Elastin. It is an "end point assay" that determines the percentage of LasB inhibition by each compound for one particular time point and inhibitor concentration. Technical details are described below:
This assay uses commercially available substrate (Abz-Ala-Gly-Leu-Ala-p-Nitro-Benzyl-Amide (Ex: 340 nm, Em: 415 nm) from Peptide International) and purified LasB protein from P. aeruginosa (provided by Merck or Charles River Laboratories). It is performed to determine LasB elastase activity and assess compound inhibition in 96-well plate format. All compounds of Formula (I) were assessed using the method described below.
Method: 10 to 140 ng/ml purified LasB is incubated with 250 µM Abz-Ala-Gly-Leu-Ala-p-Nitro-Benzyl-Amide in 50 mM Tris-HCl pH 7.4, 2.5 mM CaCl2, 0.01% of Triton X100 at 37°C. LasB activity (corresponding to fluorescence emission induced by substrate hydrolysis) is measured over 30 min at 37°C with a fluorescence plate reader such as the Perkin Elmer Envision or similar. Different range of inhibitor concentrations are routinely assessed depending of inhibitor potency from 0.0016 to 200 µM (2-fold dilutions series) in order to determine IC50.
The equation used to calculate the Ki from IC50 is: Ki = IC50 / (1+([S]/Km)) where [S] = 250 µM and Km = 214 µM.

Where [1] appears, read: Ki calculated from IC50, [S] = 250 µM, Km = 214 µM, 37°C, pH 7.4.

The structures appear in SMILES notation. Where two headings read alike, the source gives them in different places.

T1 sequence (P14756 198-498): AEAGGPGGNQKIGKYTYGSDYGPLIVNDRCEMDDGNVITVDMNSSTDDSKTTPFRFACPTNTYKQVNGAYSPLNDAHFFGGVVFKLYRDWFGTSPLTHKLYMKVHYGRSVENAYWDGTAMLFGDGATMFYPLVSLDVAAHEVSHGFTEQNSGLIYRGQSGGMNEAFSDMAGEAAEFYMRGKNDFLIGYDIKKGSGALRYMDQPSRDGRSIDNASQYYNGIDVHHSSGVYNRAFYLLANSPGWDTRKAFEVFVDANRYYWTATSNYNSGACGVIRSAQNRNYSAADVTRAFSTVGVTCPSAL

The molecule `O=C(O)CC1(C(=O)NCc2nc3ccccc3s2)Cc2cc(Cl)c(Cl)cc2C1` [Example 4, 2-(2-((benzo[d]thiazol-2-ylmethyl)carbamoyl)-5,6-dichloro-2,3-dihydro-1H-inden-2-yl)acetic acid] gave a Ki of 200 to 10000 nM. `CN(C)C1CCN(C(=O)c2ccc(-c3csc(CNC(=O)C4(CC(=O)O)Cc5ccccc5C4)n3)cc2)CC1` [Example 17, 2-[2-[[4-[4-[4-(dimethylamino)piperidine-1-carbonyl]phenyl]thiazol-2-yl]methylcarbamoyl]indan-2-yl] acetic acid] returned a Ki of 200 to 10000 nM. `CN(C)[C@H]1CCN(C(=O)c2ccc(-c3csc(CNC(=O)C4(CC(=O)O)Cc5ccccc5C4)n3)cc2)C1` [Example 18, 2-[2-[[4-[4-[(3S)-3-(dimethylamino)pyrrolidine-1-carbonyl]phenyl]thiazol-2-yl]methylcarbamoyl]indan-2-yl]acetic acid] registered a Ki of 200 to 10000 nM. `CN(C)CCCNC(=O)c1ccccc1-c1csc(CNC(=O)C2(CC(=O)O)Cc3ccccc3C2)n1` [Example 21, 2-[2-[[4-[2-[3-(dimethylamino)propylcarbamoyl]phenyl]thiazol-2-yl]methylcarbamoyl]indan-2-yl]acetic acid]: the Ki is 200 to 10000 nM. For the molecule `C[N+]1(C)CCN(C(=O)c2ccc(-c3csc(CNC(=O)C4(CC(=O)[O-])Cc5ccccc5C4)n3)cc2)CC1` [Example 22, 2-[2-[[4-[4-(4,4-dimethylpiperazin-4-ium-1-carbonyl)phenyl]thiazol-2-yl]methylcarbamoyl]indan-2-yl]acetate], the Ki fell in the range of 200 to 10000 nM.

Molecule `COc1ccc(C(=O)NCCN(C)C)cc1-c1csc(CNC(=O)C2(CC(=O)O)Cc3ccccc3C2)n1` [Example 24, 2-[2-[[4-[5-[2-(dimethylamino)ethylcarbamoyl]-2-methoxy-phenyl]thiazol-2-yl]methylcarbamoyl]indan-2-yl]acetic acid] returned a Ki of 200 to 10000 nM.

Regarding `COc1ccc(C(=O)N2CCN(C)CC2)cc1-c1csc(CNC(=O)C2(CC(=O)O)Cc3ccccc3C2)n1` [Example 25, 2-[2-[[4-[2-methoxy-5-(4-methylpiperazine-1-carbonyl)phenyl)thiazol-2-yl]methylcarbamoyl]indan-2-yl]acetic acid], the Ki was 200 to 10000 nM. `CN(C)C1CN(c2cccc(-c3csc(CNC(=O)C4(CC(=O)O)Cc5ccccc5C4)n3)c2)C1` [Example 29, 2-[2-[[4-[3-[3-(dimethylamino)azetidin-1-yl]phenyl]thiazol-2-yl]methylcarbamoyl]indan-2-yl]acetic acid] came in with a Ki of 200 to 10000 nM. For `C[N+](C)(C)CC(=O)Nc1ccc(-c2csc(CNC(=O)C3(CC(=O)[O-])Cc4ccccc4C3)n2)cc1` [Example 40, 2-[2-[[4-[4-[[2-(trimethylammonio)acetyl]amino]phenyl]thiazol-2-yl]methylcarbamoyl]indan-2-yl] acetate], the Ki lay within 200 to 10000 nM. The same measure, in the same setting: then `CN(C)CC(=O)Nc1cccc(-c2csc(CNC(=O)C3(CC(=O)O)Cc4ccccc4C3)n2)c1` [Example 41, 2-[2-[[4-[3-[[2-(dimethylamino)acetyl]amino]phenyl]thiazol-2-yl]methylcarbamoyl]indan-2-yl]acetic acid], with 200 to 10000 nM; and `C[N+](C)(C)CC(=O)Nc1cccc(-c2csc(CNC(=O)C3(CC(=O)[O-])Cc4ccccc4C3)n2)c1` [Example 42, 2-[2-[[4-[3-[[2-(trimethylammonio)acetyl]amino]phenyl]thiazol-2-yl]methylcarbamoyl]indan-2-yl] acetate], with 200 to 10000 nM; and `CN(C)CCOc1ccc(-c2csc(CNC(=O)C3(CC(=O)O)Cc4ccccc4C3)n2)cc1` [Example 48, 2-[2-[[4-[4-[2-(dimethylamino)ethoxy]phenyl]thiazol-2-yl]methylcarbamoyl]indan-2-yl]acetic acid], with 200 to 10000 nM. The same measure, in the same setting: then `NC1CCN(C(=O)COc2ccc(-c3csc(CNC(=O)C4(CC(=O)O)Cc5ccccc5C4)n3)cc2)CC1` [Example 52, 2-[2-[[4-[4-[2-(4-amino-1-piperidyl)-2-oxo-ethoxy]phenyl]thiazol-2-yl]methylcarbamoyl]indan-2-yl]acetic acid], with 50 to 200 nM; and `CN(C)CCOc1cccc(-c2csc(CNC(=O)C3(CC(=O)O)Cc4ccccc4C3)n2)c1` [Example 53, 2-[2-[[4-[3-[2-(dimethylamino)ethoxy]phenyl]thiazol-2-yl]methylcarbamoyl]indan-2-yl]acetic acid], with 200 to 10000 nM. In turn, `CN(C)CCn1cc(-c2csc(CNC(=O)C3(CC(=O)O)Cc4ccccc4C3)n2)cn1` [Example 97, 2-[2-[[4-[1-[2-(dimethylamino)ethyl]pyrazol-4-yl]thiazol-2-yl]methylcarbamoyl]indan-2-yl]acetic acid] showed an inhibitory constant (Ki) of 200 to 10000 nM. As for `C[N+]1(CCCn2cc(-c3csc(CNC(=O)C4(CC(=O)[O-])Cc5ccccc5C4)n3)cn2)CCOCC1` [Example 100, 2-[2-[[4-[1-[3-(4-methylmorpholin-4-ium-4-yl)propyl]pyrazol-4-yl]thiazol-2-yl]methylcarbamoyl]indan-2-yl]acetate], the Ki under setting [1] was 200 to 10000 nM.

Consider `CC(=O)N1CC[N+](C)(CCCn2cc(-c3csc(CNC(=O)C4(CC(=O)[O-])Cc5ccccc5C4)n3)cn2)CC1` [Example 107, 2-[2-[[4-[1-[3-(4-acetyl-1-methyl-piperazin-1-ium-1-yl)propyl]pyrazol-4-yl]thiazol-2-yl]methylcarbamoyl]indan-2-yl]acetate], for which the Ki lay within 200 to 10000 nM. On to `O=C(O)CC1(C(=O)NCc2nc(-c3cnn(CCCN4CCCCC4)c3)cs2)Cc2ccccc2C1` [Example 111, 2-[2-[[4-[1-[3-(1-piperidyl)propyl]pyrazol-4-yl]thiazol-2-yl]methylcarbamoyl]indan-2-yl]acetic acid], for which the Ki lay within 200 to 10000 nM. Still for that read-out and setting: then `CN(C)C(=O)C1CCN(CCCn2cc(-c3csc(CNC(=O)C4(CC(=O)O)Cc5ccccc5C4)n3)cn2)CC1` [Example 113, 2-[2-[[4-[1-[3-[4-(dimethylcarbamoyl)-1-piperidyl]propyl]pyrazol-4-yl]thiazol-2-yl]methylcarbamoyl]indan-2-yl]acetic acid], with 200 to 10000 nM. In the case of `C[N+]1(C)CCC(C(=O)N2CC[N+](C)(CCCn3cc(-c4csc(CNC(=O)C5(CC(=O)O)Cc6ccccc6C5)n4)cn3)CC2)CC1` [Example 115, 2-[2-[[4-[1-[3-[4-(1,1-dimethylpiperidin-1-ium-4-carbonyl)-1-methyl-piperazin-1-ium-1-yl]propyl]pyrazol-4-yl]thiazol-2-yl]methylcarbamoyl]indan-2-yl] acetate], under setting [1], the Ki was 200 to 10000 nM.

The molecule `C[n+]1ccc(CCn2cc(-c3csc(CNC(=O)C4(CC(=O)[O-])Cc5ccccc5C4)n3)cn2)cc1` [Example 117, 2-[2-[[4-[1-[2-(1-methylpyridin-1-ium-4-yl)ethyl]pyrazol-4-yl]thiazol-2-yl]methylcarbamoyl]indan-2-yl]acetate] had a Ki of 200 to 10000 nM. In turn, `C[n+]1ccc(CCCn2cc(-c3csc(CNC(=O)C4(CC(=O)[O-])Cc5ccccc5C4)n3)cn2)cc1` [Example 118, 2-[2-[[4-[1-[3-(1-methylpyridin-1-ium-4-yl)propyl]pyrazol-4-yl]thiazol-2-yl]methylcarbamoyl]indan-2-yl]acetate] returned a Ki of 200 to 10000 nM. In turn, `CN(C)CCNS(=O)(=O)c1ccc(-c2csc(CNC(=O)C3(CC(=O)O)Cc4ccccc4C3)n2)cc1` [Example 131, 2-[2-[[4-[4-[2-(dimethylamino)ethylsulfamoyl]phenyl]thiazol-2-yl]methylcarbamoyl]indan-2-yl]acetic acid] yielded a Ki of 200 to 10000 nM. `CN1CCN(C(=O)c2cncc(-c3csc(CNC(=O)C4(CC(=O)O)Cc5ccccc5C4)n3)c2)CC1` [Example 144, 2-[2-[[4-[5-(4-methylpiperazine-1-carbonyl)-3-pyridyl]thiazol-2-yl]methylcarbamoyl]indan-2-yl]acetic acid]: the Ki was 200 to 10000 nM.
